# Test results as given in PMC7177833, “2-Aminopyridine Analogs Inhibit Both Enzymes of the Glyoxylate Shunt in Pseudomonas aeruginosa” (International Journal of Molecular Sciences, 2020).
# pIC50: −log10 of the molar value. Several values for one entry are separate records, joined by “and”; a condition that tells them apart may be missing. Equal entries are not always repeated.
# Assays:
# [1] = biological target: T1, MSPa (malate synthase G from P. aeruginosa) (Pseudomonas aeruginosa, UniProt Q9I636); assay: Inhibition of purified MSPa enzymatic activity; format: biochemical; conditions: for inhibition at 75 µM: read-out: Enzyme Inhibition (%) at 75 µM MSPa
# T1 construct: made in house
# Experimental: The enzymatic activity of purified ICLPa and MSPa was assayed essentially as previously described. Compounds were added to the reaction mixtures (minus substrates) and incubated for 5 min at 37 °C. The enzyme concentration in the reaction mixtures was 170 nM for ICL and 25 nM for MS (based on the concentration of the monomer in each case). […] The reactions were initiated by the addition of pH-adjusted substrates, and the initial rates were recorded as A324 nm (for ICLPa) and A412 nm (for MSPa) using a Biospectrometer (Eppendorf, Stevenage, UK). Substrate turnover was calculated from the molar extinction coefficient of the assay products: Glyoxylate-phenylhydrazone (16,800/M/cm) for ICLPa and 2-nitro-5-thiobenzoic acid (14,150/M/cm) for MSPa.
# All data fitting was performed with GraphPad Prism version 7.04 (GraphPad Software, Inc., La Jolla, CA, USA). The solid lines are the result of fitting the data to the equations denoted in relevant experimental sections. IC50 values were determined by a nonlinear fit using the equation for sigmoidal dose-response with variable slope. In all graphs, unless otherwise stated, the data points are the mean of experimental triplicates, and all error bars correspond to ± standard deviation.
# [2] = CellTiter-Glo luminescent cell viability assay (ATP), H27; format: cell-based, human; conditions: human; H27 cells, 48 h, ATP luminescence; read-out: Cytotoxicity IC50 H27
# Experimental: (§1) The number of viable cells based on ATP quantification was determined using the CellTiter-Glo® luminescent cell viability assay (Promega, Madison, WI, USA, lot no. 0000200446). Briefly, cells were seeded into white, flat-bottomed, sterile 96-well plates (PerkinElmer, Beaconsfield, UK) and incubated for 24 h. For A-375 cells, we used 10,000 cells/well, and for H27 cells, we used 7500 cells/well. Test compounds were diluted in assay medium (Glutamax DMEM with 5% FBS (Gibco)) and added to the plates in two-fold dilutions starting at 100 µM. Negative controls (0.5% DMSO) and positive controls (camptothecin, 1.6 µM for the A-375 cells and 50 µM for the H27 cells) were also included, and the plates were incubated for an additional 48 h (95% humidity, 5% CO2 at 37 °C). After incubation, the cells were washed with PBS. To each well, we then added 50 µL of assay medium plus 50 µL of CellTiter-Glo® reagent. The samples were then shaken for 2 min at 100 rpm at 25 °C, followed by a further 10 min at 25 °C to stabilize the luminescence signal. Luminescence was measured using a VarioSkan LUX multimode microplate reader (Thermo Fisher Scientific, Vantaa, Finland).
# H27 cells = assay: as above; format: cell-based, human; conditions: IC50 cytotoxicity/IC50 P. aeruginosa growth inhibition in M9 acetate
# Experimental: as §1
# CYP2C8 = biological target: T2, CYP2C8 (Homo sapiens, UniProt P10632); assay: CYP450 inhibition in HLM, rosiglitazone probe; format: in vitro ADME; conditions: read-out: IC50 CYP450 2C8
# T2 construct: pooled human liver microsomes; tissue BioIVT; host or cells: pooled human liver microsomes
# T2 sequence (P10632 1-490): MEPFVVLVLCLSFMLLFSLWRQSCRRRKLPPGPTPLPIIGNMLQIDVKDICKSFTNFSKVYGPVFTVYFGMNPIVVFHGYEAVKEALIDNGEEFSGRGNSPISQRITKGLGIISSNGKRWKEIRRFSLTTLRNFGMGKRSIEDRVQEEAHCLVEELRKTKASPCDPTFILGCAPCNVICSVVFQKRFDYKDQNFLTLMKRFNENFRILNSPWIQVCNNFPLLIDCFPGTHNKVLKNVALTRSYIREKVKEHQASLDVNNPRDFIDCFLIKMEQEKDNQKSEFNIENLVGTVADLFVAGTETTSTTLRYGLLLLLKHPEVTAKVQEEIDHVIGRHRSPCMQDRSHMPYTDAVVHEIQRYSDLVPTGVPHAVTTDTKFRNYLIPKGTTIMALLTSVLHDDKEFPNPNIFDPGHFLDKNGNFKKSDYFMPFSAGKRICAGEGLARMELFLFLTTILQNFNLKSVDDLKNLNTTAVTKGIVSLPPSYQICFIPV
# Experimental: (§2) The CYP450 inhibition was determined by measuring the reaction products of known CYP450 substrates (probes). Probe solutions were prepared by diluting stock solutions with buffer (100 mM Tris-HCl, pH 7.5, and 0.5 mM EDTA) to the final indicated concentrations (Figure 5), and adding 180 µL of pooled human liver microsomes (20 mg/mL) (BioIVT, West Sussex, UK). These probe solutions were dispensed (195 µL) into clear 96-well plates with low evaporation lids (Corning, Turin, Italy) and the plates were prewarmed to 37 °C in a thermomixer (Hamilton, Agrate Brianza, Italy). Next, 5 µL of the test compound or appropriate positive control (Table S4) were added to the wells and the plates were incubated for a further 5 min. Following this, the reactions were started by adding NADPH regenerating solution (50 µL, see previous Section 4.7) to each well. CYP450 mixtures containing phenacetin, rosiglitazone, mephenytoin, atorvastatin, and nifedipine probes were incubated for 10 min at 37 °C, whereas those with midazolam and diclofenac were incubated for 5 min at 37 °C. Aliquots (100 µL) from each reaction mixture were quenched in 200 µL acetonitrile, and the mixtures were sedimented at 3000 ×g for 10 min at 4 °C. The supernatants were diluted in water containing 5 ng/mL Rolipram as an internal standard for LC-MS/MS analysis. All incubations were carried out in triplicate.
# (§3) Probe products were analyzed on an API4000 Qtrap mass spectrometer (Applied Biosystems/MDS SCIEX, Monza, Italy) coupled with an Acquity UPLC system (Waters, Milan, Italy) and a CTC-PAL auto-injector (CTC Analytics AG, Zwingen, Switzerland). […] The column temperature was maintained at 60 °C. The injected sample volume was 10 µL, and analytes were eluted at a flow rate of 800 µL/min in a gradient of eluent A (water with 0.1% formic acid) and eluent B (acetonitrile with 0.1% formic acid). […] The analytes were quantified in multiple reaction-monitoring mode. Data were processed, and the percentage control activity was calculated based on a comparison between the ratio of the sample peak area and the peak area.
# CYP2D6 = biological target: T3, CYP2D6 (Homo sapiens, UniProt P10635); assay: CYP450 inhibition in HLM, bufuralol probe; format: in vitro ADME; conditions: read-out: IC50 CYP450 2D6
# T3 construct: pooled human liver microsomes; tissue BioIVT; host or cells: pooled human liver microsomes
# CYP450 isozymes = assay: CYP450 inhibition in HLM, whole isozyme panel; format: in vitro ADME, human; conditions: over the concentration range tested
# Experimental: as §2, §3
# T3 sequence (P10635 whole entry): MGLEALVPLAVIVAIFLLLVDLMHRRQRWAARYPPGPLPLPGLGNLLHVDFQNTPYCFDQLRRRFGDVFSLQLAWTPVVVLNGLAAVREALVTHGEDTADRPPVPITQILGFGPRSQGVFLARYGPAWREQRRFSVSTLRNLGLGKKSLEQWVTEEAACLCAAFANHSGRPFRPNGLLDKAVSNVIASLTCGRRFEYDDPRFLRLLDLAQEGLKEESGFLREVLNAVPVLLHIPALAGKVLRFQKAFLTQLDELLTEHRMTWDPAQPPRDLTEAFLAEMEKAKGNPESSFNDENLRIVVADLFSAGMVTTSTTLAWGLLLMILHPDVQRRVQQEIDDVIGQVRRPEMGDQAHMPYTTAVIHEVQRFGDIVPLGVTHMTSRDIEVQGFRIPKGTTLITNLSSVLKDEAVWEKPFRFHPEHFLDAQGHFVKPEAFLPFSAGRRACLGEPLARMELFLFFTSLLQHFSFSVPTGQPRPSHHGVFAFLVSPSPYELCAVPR
# T1 sequence (Q9I636 whole entry): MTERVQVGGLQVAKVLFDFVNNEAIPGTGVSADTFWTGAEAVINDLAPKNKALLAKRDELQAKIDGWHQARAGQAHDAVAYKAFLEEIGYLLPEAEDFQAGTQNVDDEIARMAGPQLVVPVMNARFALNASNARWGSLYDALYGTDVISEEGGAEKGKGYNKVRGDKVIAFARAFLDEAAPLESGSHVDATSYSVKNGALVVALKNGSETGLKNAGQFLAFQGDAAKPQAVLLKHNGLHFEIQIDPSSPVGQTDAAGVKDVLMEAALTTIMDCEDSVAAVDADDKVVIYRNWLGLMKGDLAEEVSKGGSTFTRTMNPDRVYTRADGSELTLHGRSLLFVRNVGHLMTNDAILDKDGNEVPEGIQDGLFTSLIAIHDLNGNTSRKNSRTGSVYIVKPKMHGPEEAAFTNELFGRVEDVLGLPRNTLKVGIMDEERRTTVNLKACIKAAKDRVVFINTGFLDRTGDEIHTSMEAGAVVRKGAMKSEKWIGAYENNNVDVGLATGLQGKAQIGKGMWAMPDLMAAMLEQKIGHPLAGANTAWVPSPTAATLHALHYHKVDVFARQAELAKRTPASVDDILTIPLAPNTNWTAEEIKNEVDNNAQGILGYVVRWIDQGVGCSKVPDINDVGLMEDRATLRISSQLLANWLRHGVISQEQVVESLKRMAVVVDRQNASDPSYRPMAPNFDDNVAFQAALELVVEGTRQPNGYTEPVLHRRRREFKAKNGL
SMILES,pIC50 [1],Enzyme Inhibition (%) at 75 µM MSPa ([1]; 75 µM compound) [%],inhibition at 75 µM ([1]; 75 µM compound) [%],IC50 at 48 h [2] [µM],Therapeutic index H27 (H27 cells),pIC50 (CYP2C8),pIC50 (CYP2D6),inhibitory drug–drug interactions (CYP450 inhibition) (CYP450 isozymes)
CC(C)(C)OC(=O)/N=C(\NC(=O)OC(C)(C)C)Nc1cc(Cl)ccn1 [SB002],5.35,94.5,> 90,98.4,93 and 93.73,< 4.00,< 4.00,no major inhibitory drug–drug interactions
CC(C)(C)OC(=O)/N=C(\NC(=O)OC(C)(C)C)Nc1cc(C#N)ccn1 [SB023],4.84,,90.4,205,23.27,< 4.00,< 4.00,no major inhibitory drug–drug interactions
"Nc1cc(Cl)ccn1 [Compound 2-AP, 2-amino-4-chloropyridine, reference compound]",< 4.12,,18.2,,,< 4.00,< 4.00,no major inhibitory drug–drug interactions
